From patent US20050048113A1, “Composition and method for treatment or prevention of oral cavity disorders” (priority 2003, published 2005)

Legend:
[1] = test system: -person suffering from accelerated cariogenicity and progressive gingivitis
[2] = test system: male participants suffering from gingivitis; assay: Loe Silness gingival index (GI) in participants suffering from gingivitis; type: in vivo, human
Protocol: Twelve male participants (24-42 years old) suffering from gingivitis were divided into 4 groups. Participants of the first group (No.=3) were treated by conventional oral hygiene procedures, including mechanical procedures and usage of mouthwash preparations for 3 months. Participants of the second group (No. =3) were treated by swallowing tablet of Famotidine 40 mg, once daily at bed time, for 3 months. Participants of the third group (No.=3) were treated by sublingual tablet of Famotidine 40 mg, once daily at bed time, for 3 months. Participants of the fourth group (No.=3) were treated by sublingual tablet of Omeprazole 20 mg, once daily at bed time, for 3 months. All participants were screened for dental caries and treated accordingly.
Each participant was examined at recruitment and after then bi-weekly up to 3 months from recruitment (7 examinations for each participant). At each visit gingival index was determined using a standard Loe Silness gingival index (GI) chart, which is accessible at the following website: http://www.medal.org/sheets/ch9/gingival %20index %20Loe %20Silness.xls.
The GI scores of examination No.7 (at 3 months from recruitment) compared to GI scores at examination No.1 (at recruitment), were calculated as mean GI reduction for each group.

[3] = famotidine 40 mg per day, sublingual vs p.o. vs no treatment, 3 weeks each; pH 1, 2, 3 hours after a meal and at wakeup; preliminary results
Protocol: An ongoing study is now being carried out on healthy young (25-40 years old) volunteers. The oral cavity pH is measured 1, 2, and 3 hours after a meal and at wakeup in the morning. These measurements are done daily for each participant, 3 weeks without treatment, 3 weeks under sublingual famotidine (40 mg per day), and 3 weeks under p.o. famotidine (40 mg per day).

[4] = test system: proton-translocating membrane ATPases of oral streptococci; settings: cited from earlier work
[5] = Famotidine 40 mg per day, tablets swallowed, half year later

NC(N)=Nc1nc(CSCCC(N)=NS(N)(=O)=O)cs1 [Famotidine]
epigastric symptoms [1, 5]: relieved | symptoms of reflux [1, 5]: persisted | reflux symptoms ([1]; famotidine tablets taken sublingually instead of swallowed): relieved | new caries at twice a year dental follow-ups ([1]; next 5 years under sublingual famotidine treatment): new caries were not detected | gingivitis ([1]; sublingual famotidine, in the following months): improved dramatically | mean GI reduction ([2]; sublingual tablet 40 mg once daily at bed time, 3 months vs recruitment (third group)): 31% | mean GI reduction ([2]; swallowed tablet 40 mg once daily at bed time, 3 months vs recruitment (second group)): 17.1% | rank order of the highest oral cavity pH [3]: Sublingual Famotidine treatment>p.o. Famotidine treatment>no treatment

COc1ccc2[nH]c([S+]([O-])Cc3ncc(C)c(OC)c3C)nc2c1 (stereo not shown) [Omeprazole]
mean GI reduction ([2]; sublingual tablet 20 mg once daily at bed time, 3 months vs recruitment (fourth group)): 27.5%

[N-]=[N+]=[N-] [azide]
sensitivity of proton-translocating membrane ATPases to the inhibitor [4]: sensitive

C(=NC1CCCCC1)=NC1CCCCC1 [dicyclohexylcarbodiimide]
sensitivity of proton-translocating membrane ATPases to the inhibitor [4]: sensitive

C[C@@H]1O[C@@H](O[C@H]2C[C@@H](O)[C@]3(CO)[C@H]4[C@H](O)C[C@]5(C)[C@@H](C6=CC(=O)OC6)CC[C@]5(O)[C@@H]4CC[C@]3(O)C2)[C@H](O)[C@H](O)[C@H]1O [ouabain]
sensitivity of proton-translocating membrane ATPases to the inhibitor [4]: insensitive

[O]=[V]([O-])([O-])[O-] [vanadate]
sensitivity of proton-translocating membrane ATPases to the inhibitor [4]: insensitive
